# In publication PMC3830801, “Synthesis and Biological Evaluation of 2-Hydroxy-3-[(2-aryloxyethyl)amino]propyl 4-[(Alkoxycarbonyl)amino]benzoates” (The Scientific World Journal, 2013):
# Assays:
# [1] = Lipophilicity determination by HPLC (capacity factor k / log k); type: physicochemical; conditions: RP-HPLC, C18, MeOH 55%/H2O 45%
# Description: A Waters Alliance 2695 XE HPLC separation module and a Waters Photodiode Array Detector 2996 (Waters Corp., Milford, MA, USA) were used. A Symmetry C18 5 μm, 4.6 × 250 mm, part number WAT054275 (Waters Corp., Milford, MA, USA) chromatographic column was used. The HPLC separation process was monitored by Empower 2 Chromatography Data Software, Waters 2009 (Waters Corp., Milford, MA, USA). A mixture of MeOH p.a. (55%) and H2O-HPLC–Milli-Q Grade (45%) was used as a mobile phase. The total flow of the column was 1.0 mL/min, injection volume 30 μL, column temperature 45°C, and sample temperature 10°C. The detection wavelength of 210 nm was chosen. The KI methanolic solution was used for the dead time (t D) determination. Retention times (t R) were measured in minutes. The capacity factors k were calculated using the Empower 2 Chromatography Data Software according to formula k = (t R − t D)/t D, where t R is the retention time of the solute, whereas t D denotes the dead time obtained using an unretained analyte. logk, calculated from the capacity factor k, is used as the lipophilicity index converted to logP scale.
# [2] = tested on: Mycobacterium intracellulare; test: In vitro antimycobacterial evaluation (alamarBlue, MIC); type: cell-based; conditions: for MIC: Mycobacterium intracellulare, 168 h, MIC/IC90, 7 days incubation, 37°C
# Method: (§1) Clinical isolates of Mycobacterium avium subsp. paratuberculosis CIT03 and M. intracellulare were grown in Middlebrook broth (MB), supplemented with oleic-albumin-dextrose-catalase supplement (OADC, Becton Dickinson, UK) and mycobactin J (2 μg/mL). Identification of these isolates was performed using biochemical and molecular protocols. At log phase growth, the culture (10 mL) was centrifuged at 15,000 rpm/20 min using a bench top centrifuge (Model CR 4–12, Jouan Inc., UK). Following the removal of the supernatant, the pellet was washed in fresh Middlebrook 7H9GC broth and resuspended in fresh supplemented MB (10 mL). The turbidity was adjusted to match McFarland standard no. 1 (3 × 10^8 cfu) with MB broth. A further 1 : 20 dilution of the culture was then performed in MB broth. The antimicrobial susceptibility of all four mycobacterial species was investigated in a 96-well plate format. In these experiments, sterile deionised water (300 μL) was added to all outer-perimeter wells of the plates to minimize evaporation of the medium in the test wells during incubation. Each evaluated compound (100 μL) was incubated with each of the mycobacterial species (100 μL). Dilutions of each compound were prepared in duplicate. For all synthesized compounds, final concentrations ranged from 1,000 μg/mL to 8 μg/mL. All compounds were prepared in DMSO, and subsequent dilutions were made in supplemented MB. The plates were sealed with parafilm and incubated at 37°C, for 7 days in the case of M. intracellulare and 11 days in the case of M. avium paratuberculosis. Following incubation, a 10% addition of alamarBlue (AbD Serotec) was mixed with each well, and readings at 570 nm and 600 nm were taken, initially for background subtraction and subsequently after 24 h reincubation. […] For noninterfering compounds, a blue colour in the well was interpreted as an absence of growth, and a pink colour was scored as growth. The MIC was initially defined as the lowest concentration which prevented a visual colour change from blue to pink. […] The MIC/IC90 value is routinely and widely used in bacterial assays and is a standard detection limit according to the Clinical and Laboratory Standards Institute (CLSI, http://www.clsi.org/).
# [3] = tested on: Mycobacterium avium subsp. paratuberculosis CIT03; test: as above; type: cell-based; conditions: for MIC: Mycobacterium avium, 264 h, MIC/IC90, 11 days incubation, 37°C
# Method: as §1
# [4] = pKa determination by RP-HPLC; type: physicochemical; conditions: from retention factor vs pH of mobile phase, recalculated for water medium
SMILES,Log k [1],MIC [2] [µM],MIC [3] [µM],pKa [4],antimycobacterial activity against M. intracellulare (in words) [2],antimycobacterial activity against M. avium subsp. paratuberculosis (in words) [3]
"CCOC(=O)Nc1ccc(C(=O)OCC(O)CNCCOc2ccc(OC)cc2)cc1.Cl (stereo not drawn) [Compound 20b, 2-Hydroxy-3-[2-(4-methoxyphenoxy)ethylamino]-propyl 4-(Ethoxycarbonylamino)benzoate Hydrochloride]",0.3999,533,533,8.23,,
"CCCOC(=O)Nc1ccc(C(=O)OCC(O)CNCCOc2c(OC)cccc2OC)cc1.Cl (stereo not drawn) [Compound 21c, 2-Hydroxy-3-[2-(2,6-dimethoxyphenoxy)ethylamino]-propyl 4-(Propoxycarbonylamino)benzoate Hydrochloride]",0.4052,487,117,8.9,,
"CCCOC(=O)Nc1ccc(C(=O)OCC(O)CNCCOc2ccc(F)cc2)cc1.Cl (stereo not drawn) [Compound 23c, 3-[2-(4-Fluorophenoxy)ethylamino]-2-hydroxypropyl 4-(Propoxycarbonylamino)benzoate Hydrochloride]",0.4228,265,66,8.16,,
"COC(=O)Nc1ccc(C(=O)OCC(O)CNCCOc2c(OC)cccc2OC)cc1.Cl (stereo not drawn) [Compound 21a, 2-Hydroxy-3-[2-(2,6-dimethoxyphenoxy)ethylamino]-propyl 4-(Methoxycarbonylamino)benzoate Hydrochloride]",0.3865,516,516,9.14,,
"COC(=O)Nc1ccc(C(=O)OCC(O)CNCCOc2ccccc2F)cc1.Cl (stereo not drawn) [Compound 22a, 3-[2-(2-Fluorophenoxy)ethylamino]-2-hydroxypropyl 4-(Methoxycarbonylamino)benzoate Hydrochloride]",0.3904,564,564,7.98,,
"CCOC(=O)Nc1ccc(C(=O)OCC(O)CNCCOc2c(OC)cccc2OC)cc1.Cl (stereo not drawn) [Compound 21b, 2-Hydroxy-3-[2-(2,6-dimethoxyphenoxy)ethylamino]-propyl 4-(Ethoxycarbonylamino)benzoate Hydrochloride]",0.3956,501,501,8.88,,
"COC(=O)Nc1ccc(C(=O)OCC(O)CNCCOc2ccc(F)cc2)cc1.Cl (stereo not drawn) [Compound 23a, 3-[2-(4-Fluorophenoxy)ethylamino]-2-hydroxypropyl 4-(Methoxycarbonylamino)benzoate Hydrochloride]",0.3915,564,564,8.04,,
"NNC(=O)c1ccncc1 [INH, isoniazid, reference compound]",,> 729,> 1820,,inactive,inactive
"NC(=O)c1cnccn1 [PZA, pyrazinamide, reference compound]",,> 812,> 2030,,inactive,inactive
"COC(=O)Nc1ccc(C(=O)OCC(O)CNCCOc2ccccc2OC)cc1.Cl (stereo not drawn) [Compound 19a, 2-Hydroxy-3-[2-(2-methoxyphenoxy)ethylamino]-propyl 4-(Methoxycarbonylamino)benzoate Hydrochloride]",0.3870,550,275,8.82,,
"CCCOC(=O)Nc1ccc(C(=O)OCC(O)CNCCOc2ccccc2F)cc1.Cl (stereo not drawn) [Compound 22c, 3-[2-(2-Fluorophenoxy)ethylamino]-2-hydroxypropyl 4-(Propoxycarbonylamino)benzoate Hydrochloride]",0.4206,265,265,7.97,,
"CO[C@H]1/C=C/O[C@@]2(C)Oc3c(C)c(O)c4c(O)c(c(/C=N/N5CCN(C)CC5)c(O)c4c3C2=O)NC(=O)/C(C)=C\C=C\[C@H](C)[C@H](O)[C@@H](C)[C@@H](O)[C@@H](C)[C@H](OC(C)=O)[C@@H]1C [RIF, rifampicin, reference compound]",,,> 109,,,
